# Data taken from patent US20150105252A1, “SUBSTITUTED PYRAZOLES AS HERBICIDES” (E I DU PONT DE NEMOURS AND COMPANY, priority 2013, published 2015).
# Columns and labels:
# foxtail, giant = assay: Test A preemergence; format: in vivo, Setaria faberii; settings: preemergence
# How it was run: (§1)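 After sowing in a sand–loam mix, pots received compound preemergence by directed soil spray, or postemergence once plants reached the one- to two-leaf stage (2–10 cm). Formulation contained surfactant in a non-phytotoxic solvent. Injury was scored visually after ~10 greenhouse days, 0–100 scale.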
# morningglory [1] = assay: Test A preemergence; format: in vivo, Ipomoea spp.; settings: preemergence
# How it was run: as §1
# corn [2] = assay: Test A preemergence; format: in vivo, Zea mays; settings: preemergence
# How it was run: as §1
# barnyardgrass [3] = assay: Test A postemergence; format: in vivo, Echinochloa crus-galli
# How it was run: as §1
# velvetleaf [4] = assay: Test A postemergence; format: in vivo, Abutilon theophrasti
# How it was run: as §1
# corn [5] = assay: Test A postemergence; format: in vivo, Zea mays
# How it was run: as §1
# galium = assay: Test C preemergence; format: in vivo, Galium aparine; settings: preemergence
# How it was run: (§2)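 Scores of 0 (no effect) to 100 (complete control) were assigned by eye after 13–15 days, comparing treated pots with controls. Soil-applied (preemergence) treatments went onto seeds in loam and sand; foliar (postemergence) treatments onto 1- to 4-leaf plants in peat medium.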
# barnyardgrass [6] = assay: Test C preemergence; format: in vivo, Echinochloa crus-galli; settings: preemergence
# How it was run: as §2
# lambsquarters = assay: Test C postemergence; format: in vivo, Chenopodium album
# How it was run: as §2
# morningglory [7] = assay: Test C postemergence; format: in vivo, Ipomoea coccinea
# How it was run: as §2
# pigweed = assay: Test C postemergence; format: in vivo, Amaranthus retroflexus
# How it was run: as §2
# barnyardgrass [8] = assay: Test C postemergence; format: in vivo, Echinochloa crus-galli
# How it was run: as §2
# oilseed rape = assay: Test C postemergence; format: in vivo, Brassica napus
# How it was run: as §2
# oat, wild = assay: Test C postemergence; format: in vivo, Avena fatua
# How it was run: as §2
# velvetleaf [9] = assay: Test C postemergence; format: in vivo, Abutilon theophrasti
# How it was run: as §2
# chickweed = assay: Test C postemergence; format: in vivo, Stellaria media
# How it was run: as §2
# [10] = 125 g ai/ha, visual injury approx. 10 days after treatment
# [11] = 500 g ai/ha, visual injury after approx. 10 days, 0 to 100 scale (0 no effect, 100 complete control)
# [12] = Postemergence, 500 g ai/ha, 0 to 100 scale (0 no effect, 100 complete control)
# [13] = postemergence, 125 g ai/ha, about 10 days, visual rating on 0 to 100 scale (0 no effect, 100 complete control)
# [14] = 31 g ai/ha, visual rating, scale 0 to 100 (0 no effect, 100 complete control), 13 to 15 days
# [15] = 62 g ai/ha, scale 0 to 100 (0 no effect, 100 complete control), 13 to 15 days
# [16] = 125 g ai/ha, 13 to 15 days, scale 0 to 100, 0 = no effect, 100 = complete control
# [17] = 250 g ai/ha, scale 0 to 100, 0 is no effect, 100 is complete control
# [18] = Postemergence, 31 g ai/ha, visually evaluated after 13 to 15 days
# [19] = postemergence, 62 g ai/ha, scale 0 to 100
# [20] = postemergence, 250 g ai/ha, scale 0 to 100 (0 no effect, 100 complete control)
# [21] = postemergence, 125 g ai/ha, scale 0 to 100, 0 no effect, 100 complete control
compound,measurement,setting,value
O=C(NC1CC1)c1cc(CCCl)n(Cc2ccnc(C(F)(F)F)c2)n1 [Compound 144],"Foxtail, Giant plant response rating (0 to 100 scale)","foxtail, giant; [10]",100
same,"Foxtail, Giant plant response rating","foxtail, giant; [11]",100
same,Morningglory plant response rating (0 to 100 scale),morningglory [1]; [10],80
same,Morningglory plant response rating,morningglory [1]; [11],100
same,Corn plant response rating (0 to 100 scale),corn [2]; [10],10
same,Corn plant response rating,corn [2]; [11],80
same,Barnyardgrass plant response rating,barnyardgrass [3]; [12],90
same,Barnyardgrass plant response rating,barnyardgrass [3]; [13],70
same,Velvetleaf plant response rating,velvetleaf [4]; [12],90
same,Velvetleaf plant response rating,velvetleaf [4]; [13],80
same,Corn plant response rating,corn [5]; [12],90
same,Corn plant response rating,corn [5]; [13],50
same,Galium plant response rating,galium; [14],30
same,Galium plant response rating,galium; [15],80
same,"Plant response rating, Galium",galium; [16],100
same,Galium plant response rating,galium; [17],100
same,Barnyardgrass plant response rating,barnyardgrass [6]; [14],75
same,Barnyardgrass plant response rating,barnyardgrass [6]; [15],98
same,"Plant response rating, Barnyardgrass",barnyardgrass [6]; [16],100
same,Barnyardgrass plant response rating,barnyardgrass [6]; [17],100
same,"Plant response rating (scale of 0 to 100 where 0 is no effect and 100 is complete control), Lambsquarters",lambsquarters; [18],60
same,Lambsquarters plant response rating,lambsquarters; [19],60
same,"Plant response rating, Lambsquarters",lambsquarters; [20],95
same,"Plant response rating, Lambsquarters",lambsquarters; [21],70
same,"Plant response rating (scale of 0 to 100 where 0 is no effect and 100 is complete control), Morningglory",morningglory [7]; [18],35
same,Morningglory plant response rating,morningglory [7]; [19],40
same,"Plant response rating, Morningglory",morningglory [7]; [20],98
same,"Plant response rating, Morningglory",morningglory [7]; [21],85
same,"Plant response rating (scale of 0 to 100 where 0 is no effect and 100 is complete control), Pigweed",pigweed; [18],65
same,Pigweed plant response rating,pigweed; [19],75
same,"Plant response rating, Pigweed",pigweed; [20],95
same,"Plant response rating, Pigweed",pigweed; [21],85
same,"Plant response rating (scale of 0 to 100 where 0 is no effect and 100 is complete control), Barnyardgrass",barnyardgrass [8]; [18],10
same,Barnyardgrass plant response rating,barnyardgrass [8]; [19],15
same,"Plant response rating, Barnyardgrass",barnyardgrass [8]; [20],15
same,"Plant response rating, Barnyardgrass",barnyardgrass [8]; [21],10
same,"Plant response rating (scale of 0 to 100 where 0 is no effect and 100 is complete control), Oilseed Rape",oilseed rape; [18],50
same,Oilseed Rape plant response rating,oilseed rape; [19],50
same,"Plant response rating, Oilseed Rape",oilseed rape; [20],65
same,"Plant response rating, Oilseed Rape",oilseed rape; [21],60
same,"Plant response rating (scale of 0 to 100 where 0 is no effect and 100 is complete control), Oat, Wild","oat, wild; [18]",15
same,"Oat, Wild plant response rating","oat, wild; [19]",10
same,"Plant response rating, Oat, Wild","oat, wild; [20]",45
same,"Plant response rating, Oat, Wild","oat, wild; [21]",20
same,"Plant response rating (scale of 0 to 100 where 0 is no effect and 100 is complete control), Velvetleaf",velvetleaf [9]; [18],15
same,"Plant response rating, Velvetleaf",velvetleaf [9]; [20],50
same,Velvetleaf plant response rating,"velvetleaf [9]; postemergence, scale 0 to 100",35
same,"Plant response rating (scale of 0 to 100 where 0 is no effect and 100 is complete control), Chickweed",chickweed; [18],70
same,Chickweed plant response rating,chickweed; [19],65
same,"Plant response rating, Chickweed",chickweed; [20],90
same,"Plant response rating, Chickweed",chickweed; [21],80
